# Reference: patent US6492397B1, “N-arylheteroarylalkyl imidazol-2-one compounds for treatment of arteriosclerosis” (Pharmacia Corporation, priority 1991, dated 2002)
# pIC50: −log10 of the molar value. Like-named read-outs stand apart in the source and are kept apart here.
# Tests used:
# [1] = molecular target: smooth muscle angiotensin II receptor; experiment: Assay A: Angiotensin II Binding Activity (125I-angiotensin II displacement, rat uterine membrane preparation); details: 50% displacement of specifically bound 125I-AII, rat uterine membranes, 25° C., 60 min
# Method: Assay A: Angiotensin II Binding Activity
# Compounds of the invention were tested for ability to bind to the smooth muscle angiotensin II receptor using a rat uterine membrane preparation. […] Other chemicals were obtained from Sigma Chemical Co. This assay was carried out according to the method of Douglas et al [Endocrinology, 106, 120-124 (1980)]. Rat uterine membranes were prepared from fresh tissue. All procedures were carried out at 4° C. Uteri were stripped of fat and homogenized in phosphate-buffered saline at pH 7.4 containing 5 mM EDTA. The homogenate was centrifuged at 1500×g for 20 min., and the supernatant was recentrifuged at 100,000×g for 60 min. The pellet was resuspended in buffer consisting of 2 mM EDTA and 50 mM Tris-HCl (pH 7.5) to a final protein concentration of 4 mg/ml. Assay tubes were charged with 0.25 ml of a solution containing 5 mM MgCl2, 2 mM EDTA, 0.5% bovine serum albumin, 50 mM Tris-HCl, pH 7.5 and […] (approximately 10^5 cpm) in the absence or in the presence of unlabelled ligand. The reaction was initiated by the addition of membrane protein and the mixture was incubated at 25° C. for 60 min. The incubation was terminated with ice-cold 50 mM Tris-HCl (pH 7.5) and the mixture was filtered to separate membrane-bound labelled peptide from the free ligand. The incubation tube and filter were washed with ice-cold buffer. Filters were assayed for radioactivity in a Micromedic gamma counter. Nonspecific binding was defined as binding in the presence of 10 μM of unlabelled AII. Specific binding was calculated as total binding minus nonspecific binding. […] Binding data were analyzed by a nonlinear least-squares curve fitting program.
# pressor response to AII = experiment: Assay C: In Vivo Intragastric Pressor Assay Response for AII Antagonists; design: species or system rat; details: for Assay C Duration: Dose: 3 mg/kg (i.g.), Sprague-Dawley rats, AII challenges up to 180 minutes after gavage; for inhibition in vivo at 3 mg/kg: Rattus norvegicus, po
# Method: Assay C: In Vivo Intragastric Pressor Assay Response for AII Antagonists
# Male Sprague-Dawley rats weighing 225-300 grams were anesthetized with methohexital (30 mg/kg, i.p.) and catheters were implanted into the femoral artery and vein. The catheters were tunneled subcutaneously to exit dorsally, posterior to the head and between the scapulae. The catheters were filled with heparin (1000 units/ml of saline). The rats were returned to their cage and allowed regular rat chow and water ad libitum. After full recovery from surgery (3-4 days), rats were placed in Lucite holders and the arterial line was connected to a pressure transducer. Arterial pressure was recorded on a Gould polygraph (mmHg). Angiotensin II was administered as a 30 ng/kg bolus via the venous catheter delivered in a 50 μl volume with a 0.2 ml saline flush. The pressor response in mm Hg was measured by the difference from pre-injection arterial pressure to the maximum pressure achieved. The AII injection was repeated every 10 minutes until three consecutive injections yielded responses within 4 mmHg of each other. These three responses were then averaged and represented the control response to AII. The test compound was suspended in 0.5% methylcellulose in water and was administered by gavage. The volume administered was 2 ml/kg body weight. The standard dose was 3 mg/kg. Angiotensin II bolus injections were given at 30, 45, 60, 75, 120, 150, and 180 minutes after gavage. The pressor response to AII was measured at each time point. The rats were then returned to their cage for future testing. A minimum of 3 days was allowed between tests. Percent inhibition was calculated for each time point following gavage by the following formula: [(Control Response−Response at time point)/Control Response]×100.
# rabbit aortic rings = experiment: Assay B: In Vitro Vascular Smooth Muscle Response for AII (antagonist activity in rabbit aortic rings); type: cell-based; details: Oryctolagus cuniculus, test antagonist at 10^-5 M, AII contraction, read-out: Assay B pA2 (converted)
# Method: Assay B: In Vitro Vascular Smooth Muscle-Response for AII
# The compounds of the invention were tested for antagonist activity in rabbit aortic rings. Male New Zealand white rabbits (2-2.5 kg) were sacrificed using an overdose of pentobarbital and exsanguinated via the carotid arteries. The thoracic aorta was removed, cleaned of adherent fat and connective tissue and then cut into 3-mm ring segments. The endothelium was removed from the rings by gently sliding a rolled-up piece of filter paper into the vessel lumen. The rings were then mounted in a water-jacketed tissue bath, maintained at 37° C., between moveable and fixed ends of a stainless steel wire with the moveable end attached to an FT03 Grass transducer coupled to a Model 7D Grass Polygraph for recording isometric force responses. The bath was filled with 20 ml of oxygenated (95% oxygen/5% carbon dioxide) Krebs solution of the following composition (mM): 130 NaCl, 15 NaHCO3, […], 1.2 NaH2PO4, 1.2 MgSO4, 2.5 CaCl2, and 11.4 glucose. The preparations were equilibrated for one hour before approximately one gram of passive tension was placed on the rings. Angiotensin II concentration-response curves were then recorded (3×10^−10 to 1×10^−5 M). Each concentration of AII was allowed to elicit its maximal contraction, and then AII was washed out repeatedly for 30 minutes before rechallenging with a higher concentration of AII. Aorta rings were exposed to the test antagonist at 10^−5 M for 5 minutes before challenging with AII. Adjacent segments of the same aorta ring were used for all concentration-response curves in the presence or absence of the test antagonist. The effectiveness of the test compound was expressed in terms of pA2 values and were calculated according to H. O. Schild [Br. J. Pharmacol. Chemother., 2,189-206 (1947)]. The PA2 value is the concentration of the antagonist which increases the EC50 value for AII by a factor of two. Each test antagonist was evaluated in aorta rings from two rabbits.
# [2] = first value of the pair (aorta rings from two rabbits)
# [3] = second value of the pair (aorta rings from two rabbits)
pIC50 [1],melting point,SMILES,Assay C Duration (pressor response to AII) [min],inhibition in vivo at 3 mg/kg (pressor response to AII) [%],Kb (rabbit aortic rings; [2]) [µM],Kb (rabbit aortic rings; [3]) [µM]
8.15,164.5 to 165.5 °C (dec.),"CCCCc1cn(-c2c(F)cccc2F)c(=O)n1Cc1ccc(-c2ccccc2-c2nnn[nH]2)nc1 [Example 36, 1-(2,6-difluorophenyl)-4-butyl-1,3-dihydro-3-[[6-[2-(1H-tetrazol-5-yl)phenyl]-3-pyridinyl]methyl]-2H-imidazol-2-one]",120,75,–,–
8.27,182 to 183 °C,"CCCCc1cn(CCC2CC2)c(=O)n1Cc1ccc(-c2ccccc2-c2nnn[nH]2)nc1 [Example 22, 1-(2-cyclopropylethyl)-4-butyl 1,3-dihydro3-[[6-[2-(1H-tetrazol-5-yl)phenyl]-3-pyridinyl]methyl]-2H-imidazol-2-one]",>180,30,0.00178,0.00129
7.85,160 to 161.5 °C,"CCCCc1cn(CC(C)C)c(=O)n1Cc1ccc(-c2ccccc2-c2nnn[nH]2)nc1 [Example 13, 1-isobutyl-4-butyl-1,3-dihydro-3-[[6-[2-(1H-tetrazol-5-yl)phenyl]-3-pyridinyl]methyl]-2H-imidazol-2-one]",–,–,0.00933,0.00251
7.66,204 °C (dec.),"CCCCc1cn(CC2CCCC2)c(=O)n1Cc1ccc(-c2ccccc2-c2nnn[nH]2)nc1 [Example 24, 1-cyclopentylmethyl-4-butyl-1,3-dihydro-3-[[6-[2-(1H-tetrazol-5-yl)phenyl]-3-pyridinyl]methyl]-2H-imidazol-2-one]",>180,50,0.000646,0.00204
7.04,178 to 179.5 °C,"CCCCc1cn(CCCC)c(=O)n1Cc1ccc(-c2ncccc2-c2nnn[nH]2)cc1 [Example 40, 1,4-dibutyl-1,3-dihydro-3-[[4-[3-(1H-tetrazol-5-yl)-2-pyridinyl]phenyl]methyl]-2H-imidazol-2-one]",–,–,–,–
7.05,178 to 179.5 °C,"CCCCc1cn(CCCC)c(=O)n1Cc1ccc(-c2cccnc2-c2nnn[nH]2)cc1 [Example 43, 1,4-dibutyl-1,3-dihydro-3-[[4-[2-(1H-tetrazol-5-yl)-3-pyridinyl]phenyl]methyl]-2H-imidazol-2-one]",–,–,0.0282,0.0214
6.85,195 to 196 °C (dec.),"CCCCn1cc(C2CCCC2)n(Cc2ccc(-c3ccccc3-c3nnn[nH]3)nc2)c1=O [Example 8, 1-butyl-4-cyclopentyl-1,3-dihydro-3-[[6-[2-(1H-tetrazol-5-yl)phenyl]-3-pyridinyl]methyl]-2H-imidazol-2-one]",–,–,–,–
7.47,205 °C (dec.),"CCCCc1cn(CC)c(=O)n1Cc1ccc(-c2ccccc2-c2nnn[nH]2)nc1 [Example 11, 1-ethyl-4-butyl-1,3-dihydro-3-[[6-[2-(1H-tetrazol-5-yl)phenyl]-3-pyridinyl]methyl]-2H-imidazol-2-one]",–,–,0.00363,0.00933
7.80,174 to 176 °C (dec.),"CCCCc1cn(CC(CC)CC)c(=O)n1Cc1ccc(-c2ccccc2-c2nnn[nH]2)nc1 [Example 20, 1-(2-ethylbutyl)-4-butyl-1,3-dihydro-3-[[6-[2-(1H-tetrazol-5-yl)phenyl]-3-pyridinyl]methyl]-2H-imidazol-2-one]",>180,75,0.000676,0.00138
6.80,128 to 130 °C,"CCCCc1cn(CCCC)c(=O)n1Cc1ccc(-c2cnccc2-c2nnn[nH]2)cc1 [Example 41, 1,4-dibutyl-1,3-dihydro-3-[[4-[4-(1H-tetrazol-5-yl)-3-pyridinyl]phenyl]methyl]-2H-imidazol-2-one]",–,–,–,–
7.51,164 to 165 °C,"CCCCc1cn(CCC)c(=O)n1Cc1ccc(-c2ccccc2-c2nnn[nH]2)nc1 [Example 12, 1-propyl-4-butyl-1,3-dihydro-3-[[6-[2-(1H-tetrazol-5-yl)phenyl]-3-pyridinyl]methyl]-2H-imidazol-2-one]",–,–,0.0209,0.0055
7.77,–,"CCCCc1cn(C(C)(C)C)c(=O)n1Cc1ccc(-c2ccccc2-c2nnn[nH]2)nc1 [Example 17, 1-tertbutyl-4-butyl-1,3-dihydro-3-[[6-[2-(1H-tetrazol-5-yl)phenyl]-3-pyridinyl]methyl]-2H-imidazol-2-one]",180,10,0.00166,0.00234
7.96,–,"CCCCn1cc(CCC2CC2)n(Cc2ccc(-c3ccccc3-c3nnn[nH]3)nc2)c1=O [Example 9, 1-butyl-4-(2-cyclopropylethyl)-1,3-dihydro-3-[[6-[2-(1H-tetrazol-5-yl)phenyl]-3-pyridinyl]methyl]-2H-imidazol-2-one]",180,10,0.000537,0.00135
7.03,176 to 178 °C (dec.),"CCCCc1cn(CCCC)c(=O)n1Cc1ccc(-c2ccncc2-c2nnn[nH]2)cc1 [Example 42, 1,4-dibutyl-1,3-dihydro-3-[[4-[3-(1H-tetrazol-5-yl)-4-pyridinyl]phenyl]methyl]-2H-imidazol-2-one]",–,–,–,–
8.32,212 to 212.5 °C,"CCCCc1cn(-c2c(Cl)cccc2Cl)c(=O)n1Cc1ccc(-c2ccccc2-c2nnn[nH]2)nc1 [Example 37, 1-(2,6-dichlorophenyl)-4-butyl-1,3-dihydro-3-[[6-[2-(1H-tetrazol-5-yl)phenyl]-3-pyridinyl]methyl]-2H-imidazol-2-one]",>180,25,–,–
7.33,184 to 185 °C (dec.),"CCCCc1cn(C)c(=O)n1Cc1ccc(-c2ccccc2-c2nnn[nH]2)nc1 [Example 10, 1-methyl-4-butyl-1,3-dihydro-3-[[6-[2-(1H-tetrazol-5-yl)phenyl]-3-pyridinyl]methyl]-2H-imidazol-2-one]",–,–,0.0229,0.0447
